Organism: Rattus norvegicus
Test: DrugMatrix - Regimen: Daily Repeat
Assay type: toxicity, organism-based, Sprague-Dawley
Parameters: regimen Daily Repeat, gender Male, age 6-8 weeks
Settings: in vivo, po, route oral GAVAGE, vehicle .5 % CMC; for ABSOLUTE BASOPHIL / ABSOLUTE EOSINOPHIL / ABSOLUTE LYMPHOCYTE / ABSOLUTE MONOCYTE / ABSOLUTE SEGMENTED NEUTROPHIL / BASOPHIL / EOSINOPHIL / ERYTHROCYTE COUNT / HEMATOCRIT / HEMOGLOBIN / LEUKOCYTE COUNT / LYMPHOCYTE / MEAN CORPUSCULAR HEMOGLOBIN / MEAN CORPUSCULAR HEMOGLOBIN CONCENTRATION / MEAN CORPUSCULAR VOLUME / MONOCYTE / NEUTROPHIL / NUCLEATED RED BLOOD CELLS / PLATELET COUNT: tissue Blood; for ALANINE AMINOTRANSFERASE / ALBUMIN / ALKALINE PHOSPHATASE / ASPARTATE AMINOTRANSFERASE / BLOOD UREA NITROGEN / CARBON DIOXIDE / CHLORIDE / CHOLESTEROL / CREATINE PHOSPHOKINASE / CREATININE / LACTATE DEHYDROGENASE / LIPASE / PHOSPHORUS / SODIUM / TOTAL BILIRUBIN / TOTAL PROTEIN / URIC ACID: tissue Plasma
[1] = 29 mg/kg, 72 h, dose level Low, time 3 day
[2] = 29 mg/kg, 120 h, dose level Low, time 5 day
[3] = 1169 mg/kg, 72 h, dose level High, time 3 day
[4] = 1169 mg/kg, 120 h, dose level High, time 5 day

Nc1nc(O)c2ncn(COC(CO)CO)c2n1 [GANCICLOVIR]
ABSOLUTE BASOPHIL [1]: 0 CELLS/uL
ABSOLUTE EOSINOPHIL [1]: 152 CELLS/uL
ABSOLUTE LYMPHOCYTE [1]: 12965 CELLS/uL
ABSOLUTE MONOCYTE [1]: 505.67 CELLS/uL
ABSOLUTE SEGMENTED NEUTROPHIL [1]: 1544 CELLS/uL
BASOPHIL [1]: 0%
EOSINOPHIL [1]: 1%
ERYTHROCYTE COUNT [1]: 5.64 x10E6/uL
HEMATOCRIT [1]: 35.17%
HEMOGLOBIN [1]: 13.17 G/DL
LEUKOCYTE COUNT [1]: 15.17 x10E3/uL
LYMPHOCYTE [1]: 85.67%
MEAN CORPUSCULAR HEMOGLOBIN [1]: 23.37 pg
MEAN CORPUSCULAR HEMOGLOBIN CONCENTRATION [1]: 37.47 G/DL
MEAN CORPUSCULAR VOLUME [1]: 62.37 fL
MONOCYTE [1]: 3.33%
NEUTROPHIL [1]: 10%
NUCLEATED RED BLOOD CELLS [1]: 0 /100WBC
PLATELET COUNT [1]: 1360 x10E3/uL
ALANINE AMINOTRANSFERASE [1]: 48 u/L
ALBUMIN [1]: 4.17 G/DL
ALKALINE PHOSPHATASE [1]: 319.67 u/L
ASPARTATE AMINOTRANSFERASE [1]: 96 u/L
BLOOD UREA NITROGEN [1]: 18 mg/dL
CARBON DIOXIDE [1]: 24 mmol/L
CHLORIDE [1]: 103 MEQ/L
CHOLESTEROL [1]: 67.67 mg/dL
CREATINE PHOSPHOKINASE [1]: 635.33 u/L
CREATININE [1]: 0.21 mg/dL
LACTATE DEHYDROGENASE [1]: 646.33 u/L
LIPASE [1]: 8.67 u/L
PHOSPHORUS [1]: 14.2 mg/dL
SODIUM [1]: 145.5 MEQ/L
TOTAL BILIRUBIN [1]: 0.2 mg/dL
TOTAL PROTEIN [1]: 5.9 G/DL
URIC ACID [1]: 2.23 mg/dL
ABSOLUTE BASOPHIL [2]: 0 CELLS/uL
ABSOLUTE EOSINOPHIL [2]: 86.67 CELLS/uL
ABSOLUTE LYMPHOCYTE [2]: 11979.33 CELLS/uL
ABSOLUTE MONOCYTE [2]: 137.33 CELLS/uL
ABSOLUTE SEGMENTED NEUTROPHIL [2]: 1530 CELLS/uL
BASOPHIL [2]: 0%
EOSINOPHIL [2]: 0.67%
ERYTHROCYTE COUNT [2]: 5.69 x10E6/uL
HEMATOCRIT [2]: 35.37%
HEMOGLOBIN [2]: 13.23 G/DL
LEUKOCYTE COUNT [2]: 13.73 x10E3/uL
LYMPHOCYTE [2]: 87%
MEAN CORPUSCULAR HEMOGLOBIN [2]: 23.27 pg
MEAN CORPUSCULAR HEMOGLOBIN CONCENTRATION [2]: 37.47 G/DL
MEAN CORPUSCULAR VOLUME [2]: 62.13 fL
MONOCYTE [2]: 1%
NEUTROPHIL [2]: 11.33%
NUCLEATED RED BLOOD CELLS [2]: 0 /100WBC
PLATELET COUNT [2]: 1168 x10E3/uL
ALANINE AMINOTRANSFERASE [2]: 47.67 u/L
ALBUMIN [2]: 4.2 G/DL
ALKALINE PHOSPHATASE [2]: 323 u/L
ASPARTATE AMINOTRANSFERASE [2]: 91.67 u/L
BLOOD UREA NITROGEN [2]: 19.33 mg/dL
CARBON DIOXIDE [2]: 25.33 mmol/L
CHLORIDE [2]: 106.33 MEQ/L
CHOLESTEROL [2]: 74.67 mg/dL
CREATINE PHOSPHOKINASE [2]: 428.33 u/L
CREATININE [2]: 0.15 mg/dL
LACTATE DEHYDROGENASE [2]: 720 u/L
LIPASE [2]: 8.67 u/L
PHOSPHORUS [2]: 11.4 mg/dL
SODIUM [2]: 145.9 MEQ/L
TOTAL BILIRUBIN [2]: 0.13 mg/dL
TOTAL PROTEIN [2]: 5.77 G/DL
URIC ACID [2]: 0.83 mg/dL
ABSOLUTE BASOPHIL [3]: 0 CELLS/uL
ABSOLUTE EOSINOPHIL [3]: 180.33 CELLS/uL
ABSOLUTE LYMPHOCYTE [3]: 12632.33 CELLS/uL
ABSOLUTE MONOCYTE [3]: 432 CELLS/uL
ABSOLUTE SEGMENTED NEUTROPHIL [3]: 1155.33 CELLS/uL
BASOPHIL [3]: 0%
EOSINOPHIL [3]: 1.67%
ERYTHROCYTE COUNT [3]: 5.52 x10E6/uL
HEMATOCRIT [3]: 33.9%
HEMOGLOBIN [3]: 12.9 G/DL
LEUKOCYTE COUNT [3]: 14.4 x10E3/uL
LYMPHOCYTE [3]: 87%
MEAN CORPUSCULAR HEMOGLOBIN [3]: 23.43 pg
MEAN CORPUSCULAR HEMOGLOBIN CONCENTRATION [3]: 38.07 G/DL
MEAN CORPUSCULAR VOLUME [3]: 61.57 fL
MONOCYTE [3]: 3%
NEUTROPHIL [3]: 8.33%
NUCLEATED RED BLOOD CELLS [3]: 0.33 /100WBC
PLATELET COUNT [3]: 1439 x10E3/uL
ALANINE AMINOTRANSFERASE [3]: 45.33 u/L
ALBUMIN [3]: 4.3 G/DL
ALKALINE PHOSPHATASE [3]: 313.33 u/L
ASPARTATE AMINOTRANSFERASE [3]: 76 u/L
BLOOD UREA NITROGEN [3]: 19 mg/dL
CARBON DIOXIDE [3]: 27.33 mmol/L
CHLORIDE [3]: 103.67 MEQ/L
CHOLESTEROL [3]: 79.67 mg/dL
CREATINE PHOSPHOKINASE [3]: 222.33 u/L
CREATININE [3]: 0.23 mg/dL
LACTATE DEHYDROGENASE [3]: 239 u/L
LIPASE [3]: 9 u/L
PHOSPHORUS [3]: 12.3 mg/dL
SODIUM [3]: 145.57 MEQ/L
TOTAL BILIRUBIN [3]: 0.2 mg/dL
TOTAL PROTEIN [3]: 5.93 G/DL
URIC ACID [3]: 1.27 mg/dL
ABSOLUTE BASOPHIL [4]: 0 CELLS/uL
ABSOLUTE EOSINOPHIL [4]: 164.33 CELLS/uL
ABSOLUTE LYMPHOCYTE [4]: 13318 CELLS/uL
ABSOLUTE MONOCYTE [4]: 365.67 CELLS/uL
ABSOLUTE SEGMENTED NEUTROPHIL [4]: 1652 CELLS/uL
BASOPHIL [4]: 0%
EOSINOPHIL [4]: 1%
ERYTHROCYTE COUNT [4]: 5.49 x10E6/uL
HEMATOCRIT [4]: 34.33%
HEMOGLOBIN [4]: 13.13 G/DL
LEUKOCYTE COUNT [4]: 15.5 x10E3/uL
LYMPHOCYTE [4]: 86%
MEAN CORPUSCULAR HEMOGLOBIN [4]: 23.93 pg
MEAN CORPUSCULAR HEMOGLOBIN CONCENTRATION [4]: 38.27 G/DL
MEAN CORPUSCULAR VOLUME [4]: 62.6 fL
MONOCYTE [4]: 2.33%
NEUTROPHIL [4]: 10.67%
NUCLEATED RED BLOOD CELLS [4]: 0.33 /100WBC
PLATELET COUNT [4]: 1216.67 x10E3/uL
ALANINE AMINOTRANSFERASE [4]: 42.33 u/L
ALBUMIN [4]: 4.2 G/DL
ALKALINE PHOSPHATASE [4]: 345.33 u/L
ASPARTATE AMINOTRANSFERASE [4]: 78.67 u/L
BLOOD UREA NITROGEN [4]: 19.67 mg/dL
CARBON DIOXIDE [4]: 29.33 mmol/L
CHLORIDE [4]: 102.33 MEQ/L
CHOLESTEROL [4]: 65.33 mg/dL
CREATINE PHOSPHOKINASE [4]: 220 u/L
CREATININE [4]: 0.18 mg/dL
LACTATE DEHYDROGENASE [4]: 181 u/L
LIPASE [4]: 8.67 u/L
PHOSPHORUS [4]: 11.73 mg/dL
SODIUM [4]: 145.77 MEQ/L
TOTAL BILIRUBIN [4]: 0.13 mg/dL
TOTAL PROTEIN [4]: 5.9 G/DL
URIC ACID [4]: 1.43 mg/dL
